Laboratory results reported in ChEMBL document CHEMBL1125772, “Synthesis and receptor binding of enantiomeric N-substituted cis-N-[2-(3,4-dichlorophenyl)ethyl]-2-(1-pyrrolidinyl)cyclohexylamines as high-affinity sigma receptor ligands” (J Med Chem, 1991).

Molecular target: Kappa-type opioid receptor (Cavia porcellus, UniProt P41144)
Experiment: Compound was tested for the inhibitory concentration against opioid receptor kappa by using [3H]bremazocine as radioligand in guinea pig brain; No inhibition; call rule not given here

Sequence of Kappa-type opioid receptor (P41144 whole entry): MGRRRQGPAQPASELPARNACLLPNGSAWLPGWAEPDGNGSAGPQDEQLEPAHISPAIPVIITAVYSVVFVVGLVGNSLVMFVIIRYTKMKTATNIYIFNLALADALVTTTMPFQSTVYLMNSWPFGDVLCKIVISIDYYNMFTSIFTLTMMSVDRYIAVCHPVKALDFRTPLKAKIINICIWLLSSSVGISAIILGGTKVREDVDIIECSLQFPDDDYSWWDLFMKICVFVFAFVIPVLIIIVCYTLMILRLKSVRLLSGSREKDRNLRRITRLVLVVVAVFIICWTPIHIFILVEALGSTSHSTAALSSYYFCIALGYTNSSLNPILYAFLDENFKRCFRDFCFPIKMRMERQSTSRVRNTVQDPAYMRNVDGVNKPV

With `Clc1ccc(CCN[C@@H]2CCCC[C@@H]2N2CCCC2)cc1Cl` the Ki was “Not Active”.
